Results as given in patent publication US12441768B2, “Compositions and methods for treating endometriosis” (EndoMet Biosciences, Inc., priority 2018, dated 2025).
Where a SMILES comes first, the peptide text is derived from it. The star is where a group is joined. Bn = c1ccc(C*)cc1

Columns and labels:
[1] = % Viability non-Wnt responsive cells
[2] = molecular target: T1, β-catenin (Homo sapiens, UniProt P35222); test: KD50 measurement using competitive fluorescence polarization (FP) with labelled TCF4; type: binding; conditions: fluorescence polarization, β-catenin; for Kd: read-out: β-Cat FP KD
T1 sequence (P35222 1-781): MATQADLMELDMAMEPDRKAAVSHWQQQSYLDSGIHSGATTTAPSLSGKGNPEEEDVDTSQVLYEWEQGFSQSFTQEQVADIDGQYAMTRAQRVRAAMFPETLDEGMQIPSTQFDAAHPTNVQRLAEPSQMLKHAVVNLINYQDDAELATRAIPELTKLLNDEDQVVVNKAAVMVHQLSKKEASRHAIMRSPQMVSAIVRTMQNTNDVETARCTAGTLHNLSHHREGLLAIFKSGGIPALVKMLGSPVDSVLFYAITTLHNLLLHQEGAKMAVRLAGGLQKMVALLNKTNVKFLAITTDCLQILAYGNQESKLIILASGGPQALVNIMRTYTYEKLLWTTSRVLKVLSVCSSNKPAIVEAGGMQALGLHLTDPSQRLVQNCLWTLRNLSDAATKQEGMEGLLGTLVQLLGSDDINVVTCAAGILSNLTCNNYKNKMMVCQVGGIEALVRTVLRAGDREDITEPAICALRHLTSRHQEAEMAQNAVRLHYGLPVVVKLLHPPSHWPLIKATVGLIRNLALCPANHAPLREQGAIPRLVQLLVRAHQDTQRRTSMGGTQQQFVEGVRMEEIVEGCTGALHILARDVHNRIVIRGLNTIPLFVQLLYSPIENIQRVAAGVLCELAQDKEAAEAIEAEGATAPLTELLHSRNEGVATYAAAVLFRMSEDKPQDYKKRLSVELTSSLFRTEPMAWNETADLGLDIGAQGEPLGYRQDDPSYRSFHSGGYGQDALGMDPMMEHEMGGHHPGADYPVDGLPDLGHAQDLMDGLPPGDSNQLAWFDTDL
How it was run: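 Polarization readout (470 nm excitation, 520 nm emission) tracks loss of labelled TCF4 binding to β-catenin as test compound competes. Conditions were 5 nM tracer, 100 nM β-catenin, room temperature, compound serially diluted from 10 nM to 30 uM; run in triplicate experiments.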

[3] = molecular target: Wnt-responsive promoter (TCF/LEF); test: Wnt-dependent luciferase reporter assay; type: cell-based, murine
How it was run: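 Murine 3T3 fibroblasts carrying a TCF/LEF-driven luciferase reporter, stimulated with Wnt3a in the presence of increasing peptide concentrations or vehicle. Luminescence inhibition gave EC50 values in uM.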

Row | SMILES | viability [1] [%] | Kd [2] [µM] | EC50 [3] [µM] | β-Cat FP Hill slope [2]
1 | CC[C@H](C)[C@H](NC(=O)[C@H](CC(C)C)NC(=O)[C@H](Cc1ccccc1)NC(=O)[C@H](Cc1c[nH]c2ccccc12)NC(=O)[C@H](Cc1c[nH]cn1)NC(=O)[C@H](CCCNC(=N)N)NC(=O)[C@H](CO)NC(=O)[C@@H](N)Cc1c[nH]c2ccccc12)C(=O)N[C@@H](CO)C(=O)N[C@@H](Cc1ccccc1)C(=O)N[C@@H](Cc1c[nH]c2ccccc12)C(N)=O [compound 91] (H-WSRHWFLISFW-NH2) | 84.6 | > 30 | > 30 | 
2 | CC[C@H](C)[C@H](NC(=O)[C@H](CC(C)C)NC(=O)[C@H](Cc1ccccc1)NC(=O)[C@H](Cc1c[nH]c2ccccc12)NC(=O)[C@H](Cc1c[nH]c2ccccc12)NC(=O)[C@H](CCCNC(=N)N)NC(=O)[C@H](CO)NC(=O)[C@@H](N)Cc1c[nH]c2ccccc12)C(=O)N[C@@H](CO)C(=O)N[C@@H](Cc1ccccc1)C(=O)N[C@@H](Cc1c[nH]c2ccccc12)C(N)=O [compound 92] (H-WSRWWFLISFW-NH2) | 87.8 | > 30 | 15 to 22.5 | 
3 | CC[C@H](C)[C@H](NC(=O)[C@H](CC(C)C)NC(=O)[C@H](Cc1ccccc1)NC(=O)[C@H](Cc1c[nH]c2ccccc12)NC(=O)[C@H](CCCCN)NC(=O)[C@H](CCCNC(=N)N)NC(=O)[C@H](CO)NC(=O)[C@@H](N)CCCCN)C(=O)N[C@@H](CO)C(=O)N[C@@H](Cc1ccccc1)C(=O)N[C@@H](Cc1c[nH]c2ccccc12)C(N)=O [compound 93] (H-KSRKWFLISFW-NH2) | 94 | > 30 | > 30 | 
4 | CC[C@H](C)[C@H](NC(=O)[C@H](CC(C)C)NC(=O)[C@H](Cc1ccccc1)NC(=O)[C@H](Cc1c[nH]c2ccccc12)NC(=O)[C@H](Cc1c[nH]cn1)NC(=O)[C@H](CCCNC(=N)N)NC(=O)[C@H](CO)NC(=O)[C@@H](N)CCCCN)C(=O)N[C@@H](CO)C(=O)N[C@@H](Cc1ccccc1)C(=O)N[C@@H](Cc1c[nH]c2ccccc12)C(N)=O [compound 94] (H-KSRHWFLISFW-NH2) | 118 | > 30 | > 30 | 
5 | CC[C@H](C)[C@H](NC(=O)[C@H](CC(C)C)NC(=O)[C@H](Cc1ccccc1)NC(=O)[C@H](Cc1c[nH]c2ccccc12)NC(=O)[C@H](Cc1c[nH]c2ccccc12)NC(=O)[C@H](CCCNC(=N)N)NC(=O)[C@H](CO)NC(=O)[C@@H](N)CCCCN)C(=O)N[C@@H](CO)C(=O)N[C@@H](Cc1ccccc1)C(=O)N[C@@H](Cc1c[nH]c2ccccc12)C(N)=O [compound 95] (H-KSRWWFLISFW-NH2) | 109 | > 30 | > 30 | 
6 | CC[C@H](C)[C@H](NC(=O)[C@H](CC(C)C)NC(=O)[C@H](Cc1ccccc1)NC(=O)[C@H](Cc1c[nH]c2ccccc12)NC(=O)[C@@H](N)CCSC)C(=O)N[C@@H](CO)C(=O)N[C@@H](CO)C(=O)N[C@@H](Cc1c[nH]c2ccccc12)C(=O)O [compound 96] (H-MWFLISSW-OH) | 97.3 | 10 to 30 | 7.5 to 15 | 0.7
7 | CC[C@H](C)[C@H](NC(=O)[C@H](CC(C)C)NC(=O)[C@H](Cc1ccccc1)NC(=O)[C@@H](N)Cc1c[nH]c2ccccc12)C(=O)N[C@@H](CO)C(=O)N[C@@H](CO)C(=O)N[C@@H](Cc1c[nH]c2ccccc12)C(=O)O [compound 97] (H-WFLISSW-OH) | 102 | 1 to 10 | 22.5 to 30 | 2.45
8 | CC[C@H](C)[C@H](NC(=O)[C@H](CC(C)C)NC(=O)[C@H](Cc1ccccc1)NC(=O)[C@@H](N)Cc1c[nH]c2ccccc12)C(=O)N[C@@H](CO)C(=O)N[C@@H](Cc1ccccc1)C(=O)N[C@@H](Cc1c[nH]c2ccccc12)C(N)=O [compound 98] (H-WFLISFW-NH2) | 96 | 1 to 10 | > 30 | 1.02
9 | CC[C@H](C)[C@H](NC(=O)[C@H](CC(C)C)NC(=O)[C@H](Cc1ccccc1)NC(=O)[C@H](Cc1c[nH]c2ccccc12)NC(=O)[C@H](CCSC)NC(=O)[C@H](CCCNC(=N)N)NC(=O)[C@H](CO)NC(=O)[C@@H](N)CCSC)C(=O)N[C@@H](CO)C(=O)N[C@@H](CO)C(=O)N[C@@H](Cc1c[nH]c2ccccc12)C(=O)O [compound 99] (H-MSRMWFLISSW-OH) | 97.3 | 1 to 10 | 22.5 to 30 | 0.7
10 | CC[C@H](C)[C@H](NC(=O)[C@H](CC(C)C)NC(=O)[C@H](Cc1ccccc1)NC(=O)[C@@H](N)Cc1c[nH]c2ccccc12)C(=O)N[C@H](C(=O)N[C@H](C(=O)N[C@@H](Cc1c[nH]c2ccccc12)C(=O)O)[C@@H](C)O)[C@@H](C)O [compound 100] (H-WFLITTW-OH) | 102 | 1 to 10 | 7.5 to 15 | 2.8
11 | CC[C@H](C)[C@H](NC(=O)[C@H](CC(C)C)NC(=O)[C@H](Cc1ccccc1)NC(=O)[C@@H](N)Cc1c[nH]c2ccccc12)C(=O)N[C@@H](CO)C(=O)N[C@@H](COCc1ccccc1)C(=O)N[C@@H](Cc1c[nH]c2ccccc12)C(=O)O [compound 101] (H-WFLISS(Bn)W-OH) | 106 | 1 to 10 | 7.5 to 15 | 3
12 | CC[C@H](C)[C@H](NC(=O)[C@H](CC(C)C)NC(=O)[C@H](Cc1ccccc1)NC(=O)[C@H](Cc1c[nH]c2ccccc12)NC)C(=O)N[C@@H](CO)C(=O)N[C@@H](Cc1ccccc1)C(=O)N[C@@H](Cc1c[nH]c2ccccc12)C(N)=O [compound 102] (HELM PEPTIDE1{[meW].F.L.I.S.F.W.[am]}$$$$V2.0) | 101 | < 0.4 | 15 to 22.5 | 0.7
13 | CC[C@H](C)[C@H](NC(=O)[C@H](CC(C)C)NC(=O)[C@H](Cc1ccccc1)NC(=O)[C@@H](N)Cc1c[nH]c2ccccc12)C(=O)N[C@@H](CO)C(=O)N[C@H](C(=O)N[C@@H](Cc1c[nH]c2ccccc12)C(=O)O)[C@@H](C)O [compound 103] (H-WFLISTW-OH) | 102 | 1 to 10 | 15 to 22.5 | 1.71
14 | CCOC[C@H](NC(=O)[C@H](CO)NC(=O)[C@@H](NC(=O)[C@H](CC(C)C)NC(=O)[C@H](Cc1ccccc1)NC(=O)[C@@H](N)Cc1c[nH]c2ccccc12)[C@@H](C)CC)C(=O)N[C@@H](Cc1c[nH]c2ccccc12)C(=O)O [compound 104] (H-WFLISS(Et)W-OH) | 104 | 1 to 10 | 7.5 to 15 | 3
15 | CCOC[C@H](NC(=O)[C@H](CO)NC(=O)[C@@H](NC(=O)[C@H](CC(C)C)NC(=O)[C@H](Cc1ccccc1)NC(=O)[C@H](Cc1c[nH]c2ccccc12)NC(=O)[C@H](CCSC)NC(=O)[C@H](CCCNC(=N)N)NC(=O)[C@H](CO)NC(=O)[C@@H](N)CCSC)[C@@H](C)CC)C(=O)N[C@@H](Cc1c[nH]c2ccccc12)C(=O)O [compound 105] (H-MSRMWFLISS(Et)W-OH) | 96.8 | 1 to 10 | 7.5 to 15 | 0.7
16 | CC[C@H](C)[C@H](NC(=O)[C@H](CC(C)C)NC(=O)[C@H](Cc1ccccc1)NC(=O)[C@H](Cc1c[nH]c2ccccc12)NC(=O)[C@H](CCSC)NC(=O)[C@H](CCCNC(=N)N)NC(=O)[C@H](CO)NC(=O)[C@@H](N)CCSC)C(=O)N[C@@H](CO)C(=O)N[C@@H](COCc1ccccc1)C(=O)N[C@@H](Cc1c[nH]c2ccccc12)C(=O)O [compound 106] (H-MSRMWFLISS(Bn)W-OH) | 105 | 1 to 10 | 15 to 22.5 | 0.7
17 | CC[C@H](C)[C@H](NC(=O)[C@H](CC(C)C)NC(=O)[C@H](Cc1ccccc1)NC(=O)[C@H](Cc1c[nH]c2ccccc12)NC(=O)[C@@H](N)CCSC)C(=O)N[C@@H](CO)C(=O)N[C@@H](Cc1ccccc1)C(=O)N[C@@H](Cc1c[nH]c2ccccc12)C(N)=O [compound 107] (H-MWFLISFW-NH2) | 100 | 1 to 10 | 7.5 to 15 | 0.7
18 | CC[C@H](C)[C@H](NC(=O)[C@H](CC(C)C)NC(=O)[C@H](Cc1ccccc1)NC(=O)[C@H](Cc1c[nH]c2ccccc12)NC(=O)[C@@H](N)CCSC)C(=O)N[C@@H](CO)C(=O)N[C@@H](Cc1ccccc1)C(=O)N[C@@H](Cc1c[nH]c2ccccc12)C(=O)NCC(N)=O [compound 108] (H-MWFLISFWG-NH2) | 102 | 0.4 to 1 | 7.5 to 15 | 0.7
